The values below come from patent publication US20100048594A1, “USE OF CYTOHESIN INHIBITORS FOR CHEMICALLY INDUCING LONGEVITY” (RHEINISCHE FRIEDRICH-WILHELMS UNIVERSITAT, priority 2006, published 2010).

The subject of assay [1] is Drosophila eukaryotic initiation factor 4E binding protein (d4EBP, Thor). Kind of assay: Transcription rate of insulin target gene d4EBP in insulin-treated Drosophila S2 cells (real-time PCR). It counts as cell-based. The note with it: 100 μM compound, 10 μg/ml human insulin, insulin alone less than 35%. As to the method: Drosophila Schneider 2 (S2) cells were cultivated in Schneider's Medium (PAN company) with 10% heat-inactivated fetal calf serum (FCS). 2×10^6 cells were drawn into 35 mm vessels at 25° C. to 80% confluence, washed one time in phosphate buffered saline solution (1×PBS, Gibco), and transferred for twelve hours to Schneider's Medium, without FCS. The cells were then preincubated for two hours with 0.5% DMSO containing Schneider's Medium, without FCS, with or without the compound according to formula (9) or formula (25), with the final concentrations of the compounds according to formulas (9) and (25) being 1 μM, 10 μM and 100 μM. This was followed by a four-hour stimulation with 10 μg/ml human insulin (Sigma).
After washing the cells two times with PBS, total RNA was then isolated from the cells using the NucleoSpin RNA II Kit (Macherey & Nagel), according to the manufacturer's instructions. The first strain cDNA synthesis was performed with every 500 ng RNA, using the QuantiTect Reverse Transcription Kit (Qiagen), according to the manufacturer's instructions. […]
The activity of the insulin signaling pathway was determined from the transcription rate of the insulin target gene Drosophila eukaryotic initiation factor 4E binding protein (d4EBP, Thor). […]

The test system of assay [2] is Drosophila melanogaster flies. Kind of assay: Lifespan of adult Drosophila melanogaster flies fed with compound (Kaplan-Meier analysis). It counts as in vivo. The settings on record: 10 μM compound in food; for Average Lifespan: ±margin of error. As to the method: The experiments were conducted on isogenic flies (Drosophila melanogaster) of the genotype white^1118, also called white^− or w^−, and mutants (w^1118; step^k08110/step^SH0323) (strain # 10770 from the public Bloomington Stock Center, genotype: step^k08110/CyO, URL http://flybase.bio.indiana.edu/reports/FBstOO10770.html; strain # FBst0103734 from the public Szeged Stock Center, genotype: step^SH0323/CyO, URL http://flybase.bio.indiana.edu/reports/FBst0103734.html), in which the Drosophila cytohesin steppke is mutated and therefore defective.
By crossing the two steppke alleles k08110 and SH0323 eight times with whites flies, an isogenic genetic background is produced, which permits a comparison of the lifespans between the genotypes of the type white^1118 and the mutants (w^1118; step^k08110/step^SH0323). The average lifespan of the wild type was approximately 25 days, while that of the mutants (w^1118; step^k08110/step^SH0323) was approximately 30 days.
To produce the special food, 32.5 g autolysed yeast (Fluka (Catalog No. 73145)) and 10 g agar (Difco (Catalog No. 281230)) were mixed with 300 ml water (demineralized, Roth (Catalog No. 3175)) and autoclaved at 120° C. for 20 minutes. The solution was cooled to 60° C., and 32.5 g α-D(+)-glucose monohydrate (Roth (Catalog No. 6887)) were added under stirring. 15 ml 10% (w/v) p-hydroxybenzoic acid methylester (Sigma (Catalog No. H3647)) solution dissolved in 70% (v/v) ethanol (Roth (Catalog No. 9065)) and 1.35 ml dimethylsulfoxide (DMSO, Roth (Catalog No. A994)) were then added. Water was then added to this basic solution to a volume of 450 ml, which was then held at a temperature of 60° C. For the control food, 50 ml of a 0.7% (v/v) DMSO solution in water were produced. For the food containing the compounds according to formulas (9) or (25), 0.2 ml of a 25 mM solution of the compounds according to formula (9) or (25) in 100% DMSO were added to 49.8 ml of a 0.3012% DMSO solution in water.
These 50 ml of the control solutions and the solutions containing the compounds according to formula (9) or (25) were each mixed with 450 ml of the basic solution, and were placed in 4 ml amounts in polystyrene containers (height 9.5 cm, diameter 2.4 cm, sealed with cotton wadding) to maintain the flies. After 24 hours, the cooled containers were sealed with cotton wadding and stored at 4° C.
The final concentration of the food components in the control food was 6.5% (w/v) autolysed yeast, 6.5% (w/v) α-D(+)-glucose monohydrate, 2% (w/v) agar, 0.3% (w/v) p-hydroxybenzoic acid methylester, 2.1% ethanol (v/v), 0.34% (v/v) DMSO.
The final concentration of the food components in the food containing the compound according to formula (9) was 6.5% (w/v) autolysed yeast, 6.5% (w/v) α-D(+)-glucose monohydrate, 2% (w/v) agar, 0.3% (w/v) p-hydroxybenzoic acid methylester, 2.1% ethanol (v/v), 0.34% (v/v) DMSO, 10 μM compound according to formula (9).
The final concentration of the food components in the food containing the compound according to formula (25) was 6.5% (w/v) autolysed yeast, 6.5% (w/v) α-D(+)-glucose monohydrate, 2% (w/v) agar, 0.3% (w/v) p-hydroxybenzoic acid methylester, 2.1% ethanol (v/v), 0.34% (v/v) DMSO, 10 μM compound according to formula (25).
The larvae were maintained on standard fly food containing 1.1% (w/v) brewer's yeast (“Gewürzmühle Brecht” company), 5.43% (w/v) cornmeal, 0.53% (w/v) filamentous agar (“Gewürzmühle Brecht” company), 6.6% (v/v) sugar beet syrup (Grafschafter), 1.3% (v/v) ethanol (Roth company), 0.13% (w/v) p-hydroxybenzoic acid methylester (Sigma).
24 hours after emergence of the imagines, the adult flies, females and males were separated under a brief CO2 anesthetization lasting less than 2 minutes. During the 24 hours after emergence, the animals were fed using standard fly food. […]

Consider `COc1nc(-c2ccc(C(C)(C)C)cc2)n(-c2ccc(NC(=O)CSc3ccccc3)cc2)n1` [Compound (25)], for which, in assay [1], the “transcription rate of d4EBP as % of that of the untreated control groups” value is “more than 95%”. Moreover, the change in lifespan result in assay [2] (control animals and mutants) is “no significant change”. Also, the “Average Lifespan” value in assay [2] (genotype w^1118, female flies) is 25.0 (±0.7) Days; in assay [2] (genotype w^1118, step^k08110/step^SH0323 mutants, female flies), 29.3 (±0.7) Days.
